Source: patent US20250122218A1, “MODULATORS OF CYSTIC FIBROSIS TRANSMEMBRANE CONDUCTANCE REGULATOR” (Vertex Pharmaceuticals Incorporated, priority 2022, published 2025)

These compounds were tested against T1, CFTR in F508del/MF-HBE cells (Homo sapiens, UniProt P13569, DEL508-508) (assay: Ussing chamber assay of CFTR-mediated short-circuit currents (identification of potentiator compounds)). Conditions: potentiator incubated 18-24 hours at 37° C. in combination with 10 μM corrector, in the presence of 20% human serum, CFTR-mediated ISC.
T1 construct: human bronchial epithelial (HBE) cells derived from CF subjects heterozygous for F508del and a minimal function CFTR mutation; endogenous in cells; host or cells: primary human bronchial epithelial cells from CF subjects (F508del/MF-HBE)
T1 sequence (P13569 with tags, fused parts or gaps DEL508-508): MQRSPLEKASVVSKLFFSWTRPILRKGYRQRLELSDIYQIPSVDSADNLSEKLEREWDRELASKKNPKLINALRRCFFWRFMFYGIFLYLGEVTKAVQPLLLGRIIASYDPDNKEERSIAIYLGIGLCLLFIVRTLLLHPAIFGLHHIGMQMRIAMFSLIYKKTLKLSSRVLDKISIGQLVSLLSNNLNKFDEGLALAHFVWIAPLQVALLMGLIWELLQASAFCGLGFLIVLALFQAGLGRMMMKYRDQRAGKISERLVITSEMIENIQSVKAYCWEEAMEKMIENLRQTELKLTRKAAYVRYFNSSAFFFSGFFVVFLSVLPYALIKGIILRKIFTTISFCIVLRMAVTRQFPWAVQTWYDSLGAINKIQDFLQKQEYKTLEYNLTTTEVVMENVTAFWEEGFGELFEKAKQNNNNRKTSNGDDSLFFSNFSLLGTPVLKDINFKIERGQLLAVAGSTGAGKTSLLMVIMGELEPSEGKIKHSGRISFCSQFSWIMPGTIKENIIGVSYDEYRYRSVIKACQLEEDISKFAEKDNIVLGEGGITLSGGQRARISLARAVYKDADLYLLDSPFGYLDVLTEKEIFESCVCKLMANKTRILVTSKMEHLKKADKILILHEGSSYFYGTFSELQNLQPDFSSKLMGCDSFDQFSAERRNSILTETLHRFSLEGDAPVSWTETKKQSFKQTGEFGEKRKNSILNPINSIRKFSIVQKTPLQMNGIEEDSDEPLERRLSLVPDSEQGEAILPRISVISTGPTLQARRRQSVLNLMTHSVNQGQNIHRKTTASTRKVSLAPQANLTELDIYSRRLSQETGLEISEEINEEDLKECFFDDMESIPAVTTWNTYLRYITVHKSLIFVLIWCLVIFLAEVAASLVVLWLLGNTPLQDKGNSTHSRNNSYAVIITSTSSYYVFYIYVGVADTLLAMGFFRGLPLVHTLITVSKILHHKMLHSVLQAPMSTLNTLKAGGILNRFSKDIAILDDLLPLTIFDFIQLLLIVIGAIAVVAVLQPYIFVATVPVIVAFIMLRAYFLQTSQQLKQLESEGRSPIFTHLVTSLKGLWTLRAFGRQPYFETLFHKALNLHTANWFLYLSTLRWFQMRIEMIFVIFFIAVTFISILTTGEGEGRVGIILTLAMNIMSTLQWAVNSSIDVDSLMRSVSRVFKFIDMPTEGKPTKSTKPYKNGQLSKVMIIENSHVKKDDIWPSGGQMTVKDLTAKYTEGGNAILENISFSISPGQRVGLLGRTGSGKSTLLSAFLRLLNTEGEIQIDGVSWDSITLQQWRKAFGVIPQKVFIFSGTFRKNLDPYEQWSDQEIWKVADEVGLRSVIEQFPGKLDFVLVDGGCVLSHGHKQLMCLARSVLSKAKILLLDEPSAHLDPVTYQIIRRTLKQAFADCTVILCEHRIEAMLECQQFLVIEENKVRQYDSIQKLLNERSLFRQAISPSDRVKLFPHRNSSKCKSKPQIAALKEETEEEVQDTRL
Assay type: cell-based
Procedure, shortened: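 F508del/MF-HBE cultures were preincubated 18-24 h at 37° C with potentiator plus 10 μM of a fixed corrector compound in 20% human serum; compounds were kept present during measurement. ISC was recorded under voltage clamp (0 mV, 37° C, amiloride apical) and taken as the 20 μM forskolin peak minus the current after inhibitor cocktail.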

Question: How did the EC50 turn out when CC(C)(C)[C@H]1CC[C@H](N2CCCCC[C@](O)(C(F)(F)F)C3=NN=C(O3)c3nc(c(C(F)(F)F)cc3N)C2=O)CC1 [Compound 97, (6R)-17-Amino-12-(trans-4-tert-butylcyclohexyl)-6-hydroxy-6,15-bis (trifluoromethyl)-19-oxa-3,4,12,18-tetrazatricyclo [12.3.1.12,5] nonadeca-1(18),2,4,14,1 6-pentaen-13-one] was run?
Answer: < 500 nM

Question: How did the EC50 turn out when Nc1cc(C(F)(F)F)c2nc1-c1nnc(o1)[C@@](O)(C(F)(F)F)CCCCCN(C1CCOCC1)C2=O [Compound 98, (6R)-17-Amino-6-hydroxy-12-tetrahydropyran-4-yl-6,15-bis (trifluoromethyl)-19-oxa-3,4,12,18-tetrazatricyclo [12.3.1.12,5] nonadeca-1(18),2,4,14,1 6-pentaen-13-one] was run?
Answer: < 500 nM

Question: Nc1cc(C(F)(F)F)c2nc1-c1nnc(o1)[C@@](O)(C(F)(F)F)CCCCCN(C1CC3(CNC3)C1)C2=O [Compound 99, (6R)-17-Amino-12-(2-azaspiro[3.3]heptan-6-yl)-6-hydroxy-6,15-bis (trifluoromethyl)-19-oxa-3,4,12,18-tetrazatricyclo [12.3.1.12,5] nonadeca-1(18),2,4,14,1 6-pentaen-13-one] was tested. Which EC50 did it give?
Answer: > 1000 nM

Question: Nc1cc(C(F)(F)F)c2nc1-c1nnc(o1)[C@@](O)(C(F)(F)F)CCCCCN(C1CCCC1)C2=O [Compound 100, (6R)-17-Amino-12-cyclopentyl-6-hydroxy-6,15-bis (trifluoromethyl)-19-oxa-3,4,12,18-tetrazatricyclo [12.3.1.12,5] nonadeca-1(18),2,4,14,1 6-pentaen-13-one] was tested. Which EC50 did it give?
Answer: < 500 nM

Question: Which EC50 does the source give for Nc1cc(C(F)(F)F)c2nc1-c1nnc(o1)[C@@](O)(C(F)(F)F)CCCCCN(Cc1ccc3c(c1)OC(F)(F)O3)C2=O [Compound 101, (6R)-Amino-12-[(2,2-difluoro-1,3-benzodioxol-5-yl)methyl]-6-hydroxy-6,15-bis (trifluoromethyl)-19-oxa-3,4,12,18-tetrazatricyclo [12.3.1.12,5] nonadeca-1(18),2,4,14,1 6-pentaen-13-one] here?
Answer: < 500 nM

Question: Nc1cc(C(F)(F)F)c2nc1-c1nnc(o1)[C@@](O)(C(F)(F)F)CCCCCN(C1CCS(=O)(=O)CC1)C2=O [Compound 102, (6R)-17-Amino-12-(1,1-dioxothian-4-yl)-6-hydroxy-6,15-bis (trifluoromethyl)-19-oxa-3,4,12,18-tetrazatricyclo [12.3.1.12,5] nonadeca-1(18),2,4,14,1 6-pentaen-13-one] was tested. Which EC50 did it give?
Answer: > 1000 nM

Question: How did the EC50 turn out when Nc1cc(C(F)(F)F)c2nc1-c1nnc(o1)[C@@](O)(C(F)(F)F)CCCCCN(C1CS(=O)(=O)C1)C2=O [Compound 103, (6R)-17-Amino-12-(1,1-dioxothietan-3-yl)-6-hydroxy-6,15-bis (trifluoromethyl)-19-oxa-3,4,12,18-tetrazatricyclo [12.3.1.12,5] nonadeca-1(18),2,4,14,1 6-pentaen-13-one] was run?
Answer: > 1000 nM

Question: How did the EC50 turn out when C[C@@H](c1ccc(F)cc1)N1CCCCC[C@](O)(C(F)(F)F)C2=NN=C(O2)c2nc(c(C(F)(F)F)cc2N)C1=O [Compound 104, (6R)-17-Amino-12-[(1S)-1-(4-fluorophenyl)ethyl]-6-hydroxy-6,15-bis (trifluoromethyl)-19-oxa-3,4,12,18-tetrazatricyclo [12.3.1.12,5] nonadeca-1(18),2,4,14,1 6-pentaen-13-one] was run?
Answer: < 500 nM

Question: How did the EC50 turn out when C[C@H](c1ccc(F)cc1)N1CCCCC[C@](O)(C(F)(F)F)C2=NN=C(O2)c2nc(c(C(F)(F)F)cc2N)C1=O [Compound 105, (6R)-17-Amino-12-[(1R)-1-(4-fluorophenyl)ethyl]-6-hydroxy-6,15-bis (trifluoromethyl)-19-oxa-3,4,12,18-tetrazatricyclo [12.3.1.12,5] nonadeca-1(18),2,4,14,1 6-pentaen-13-one] was run?
Answer: < 500 nM

Question: With Nc1cc(C(F)(F)F)c2nc1-c1nnc(o1)[C@@](O)(C(F)(F)F)CCCCCN(Cc1ccc(OC(F)(F)F)cc1)C2=O [Compound 106, (6R)-17-Amino-6-hydroxy-12-[[4-(trifluoromethoxy)phenyl]methyl]-6,15-bis (trifluorom 19-oxa-ethyl)-3,4,12,18-tetrazatricyclo [12.3.1.12,5] nonadeca-1(18),2,4,14,1 6-pentaen-13-one] as the compound, how does the EC50 read?
Answer: < 500 nM

Question: With Nc1cc(C(F)(F)F)c2nc1-c1nnc(o1)[C@@](O)(C(F)(F)F)CCCCCN(c1ccccn1)C2=O [Compound 107, (6R)-17-Amino-6-hydroxy-12-(2-pyridyl)-6,15-bis (trifluoromethyl)-19-oxa-3,4,12,18-tetrazatricyclo [12.3.1.12,5] nonadeca-1(18),2,4,14,1 6-pentaen-13-one] as the compound, how does the EC50 read?
Answer: < 500 nM

Question: For Nc1cc(C(F)(F)F)c2nc1-c1nnc(o1)[C@@](O)(C(F)(F)F)CCCCCN(c1ccccc1)C2=O [Compound 108, (6R)-17-Amino-6-hydroxy-12-phenyl-6,15-bis (trifluorom 19-oxa-ethyl)-3,4,12,18-tetrazatricyclo [12.3.1.12,5] nonadeca-1(18),2,4,14,1 6-pentaen-13-one], which EC50 is on record?
Answer: < 500 nM

Question: Which EC50 does the source give for Cn1cc(N2CCCCC[C@](O)(C(F)(F)F)C3=NN=C(O3)c3nc(c(C(F)(F)F)cc3N)C2=O)cn1 [Compound 109, (6R)-17-Amino-6-hydroxy-12-(1-methylpyrazol-4-yl)-6,15-bis (trifluoromethyl)-19-oxa-3,4,12,18-tetrazatricyclo [12.3.1.12,5] nonadeca-1(18),2,4,14,1 6-pentaen-13-one] here?
Answer: < 500 nM

Question: Which EC50 does the source give for Nc1cc(C(F)(F)F)c2nc1-c1nnc(o1)[C@@](O)(C(F)(F)F)CCCCCN(Cc1cccc3ccccc13)C2=O [Compound 110, (6R)-17-Amino-6-hydroxy-12-(1-naphthylmethyl)-6,15-bis (trifluoromethyl)-19-oxa-3,4,12,18-tetrazatricyclo [12.3.1.12,5] nonadeca-1(18),2,4,14,1 6-pentaen-13-one] here?
Answer: < 500 nM

Question: Which EC50 does the source give for Nc1cc(C(F)(F)F)c2nc1-c1nnc(o1)[C@@](O)(C(F)(F)F)CCCCCN(Cc1ccc3ccccc3c1)C2=O [Compound 111, (6R)-17-Amino-6-hydroxy-12-(2-naphthylmethyl)-6,15-bis (trifluoromethyl)-19-oxa-3,4,12,18-tetrazatricyclo [12.3.1.12,5] nonadeca-1(18),2,4,14,1 6-pentaen-13-one] here?
Answer: < 500 nM

Question: With Nc1cc(C(F)(F)F)c2nc1-c1nnc(o1)[C@@](O)(C(F)(F)F)CCCCCN(Cc1cc[nH]n1)C2=O [Compound 112, (6R)-17-Amino-6-hydroxy-12-(1H-pyrazol-3-ylmethyl)-6,15-bis (trifluoromethyl)-19-oxa-3,4,12,18-tetrazatricyclo [12.3.1.12,5] nonadeca-1(18),2,4,14,1 6-pentaen-13-one] as the compound, how does the EC50 read?
Answer: > 1000 nM

Question: Nc1cc(C(F)(F)F)c2nc1-c1nnc(o1)[C@@](O)(C(F)(F)F)CCCCCN(Cc1cn[nH]c1)C2=O [Compound 113, (6R)-17-Amino-6-hydroxy-12-(1H-pyrazol-4-ylmethyl)-6,15-bis (trifluoromethyl)-19-oxa-3,4,12,18-tetrazatricyclo [12.3.1.12,5] nonadeca-1(18),2,4,14,1 6-pentaen-13-one] was tested. Which EC50 did it give?
Answer: > 1000 nM

Question: Which EC50 does the source give for CC(C)(C)c1ccc(CN2CCCCC[C@](O)(C(F)(F)F)C3=NN=C(O3)c3nc(c(C(F)(F)F)cc3N)C2=O)cc1 [Compound 116, (6R)-17-Amino-12-[(4-tert-butylphenyl)methyl]-6-hydroxy-6,15-bis (trifluoromethyl)-19-oxa-3,4,12,18-tetrazatricyclo [12.3.1.12,5] nonadeca-1(18),2,4,14,1 6-pentaen-13-one] here?
Answer: < 500 nM
